The record followed here is patent publication US7235588B2, “Method for reducing hypertension and heart failure” (The Research Foundation of State University of New York, priority 2001, dated 2007).

In test [1] the test system is rat hearts. Briefly: Myocardial function of spontaneously beating working hearts subjected to ischemia/reperfusion.
The subject of test [2] is rat hearts. Briefly: Myocardial infarct size (triphenyl tetrazolium staining) after ischemia/reperfusion. As to conditions: FIG. 4B. The method, then: To gain insight into the physiological basis for cardioprotection afforded by tyrphostin AG490, the extent of cardiomyocyte infarct size and apoptosis were measured. On termination of treatment with tyrphostin AG490, hearts were immersed in 1% triphenyl tetrazolium solution in phosphate buffer (Na2HPO4 88 mmol/l, NaH2PO4 1.8 mmol/l) for 10 min. at 37° C. and stored at −70° C. for processing. Frozen hearts (ventricular tissue) were sliced transversely in a plane perpendicular to the apicobasal axis into 0.5 mm thick sections, blotted dry, placed between microscope slides, and scanned on a Hewlett-Packard Scanjet 5 p single-pass flatbed scanner. With the NIH 1.61 image processing software, each digitized image was subjected to equivalent degrees of background subtraction, brightness, and contrast enhancement for improved clarity and distinctness. Risk (equivalent to total left ventricular muscle mass) and infarct zones of each slice were traced, and the respective areas were calculated in terms of pixels. The weight of each slice was then recorded to facilitate the expression of total and infarct masses of each slice in grams. The risk and infarct volumes of each slice in cubic centimeters were then calculated on the basis of slice weight to correct for any errors due to nonuniformity of heart slice thickness. […]

In the next test the test system is angiotensinogen mRNA. Kind of test: Angiotensinogen mRNA in hearts subjected to ischemia/reperfusion (primer extension assay). As to conditions: 30 min ischemia and 120 min reperfusion. The arrangement: species or system rat. The method, then: Ischemia was induced by a modified Langendorf-reperfusion method in rat hearts. Hearts from adult male rats were randomly divided into 4 groups and subjected to ischemia/reperfusion. In the ischemic group, hearts were perfused with Krebs-Henseleit buffer for 60 minutes, followed by 30 minutes of global ischemia. In the ischemic/reperfused group, hearts were perfused for 60 minutes, followed by 30 minutes of global ischemia and 120 minutes of reperfusion. Control group hearts were perfused for the same lengths of time.
Rat hearts subjected to ischemia/reperfusion were tested to determine whether activation of the renin-angiotensin system, as reflected by an increase in angiotensinogen mRNA, occurs in ischemic injury. The level of angiotensinogen mRNA was analyzed by primer extension assay using gene-specific DNA probes. A DNA primer spanning the complementary sequence of the rat angiotensinogen cDNA between nucleotides 302 and 279 (5′-[…]-3′) SEQ ID NO: 1 was end-labeled and used to evaluate the expression of angiotensinogen mRNA in total RNA isolated from the rat heart. The primer extension protocol was performed according to instructions provided by the supplier (Progema). Rat GAPDH cDNA specific primer was used as control. There was a marked increase in mRNA level after 30 minutes of ischemia and 120 minutes of reperfusion (FIG. 5A). […]

Another test concerns the target T1, Jak2 (Rattus norvegicus, UniProt Q62689).
T1 construct: nuclear extracts from hearts subjected to ischemia/reperfusion in presence of absence of tyrphostin AG490 were immunoprecipitated; from tissue; host or cells: rat heart (nuclear extracts)
Briefly: Phosphotyrosine assay of Jak2 in hearts subjected to ischemia/reperfusion. As to conditions: ischemic heart, FIG. 6A. As to the method: Rats were pretreated with 5 or 50 μmol/L of tyrphostin AG490 24 h prior to ischemia/reperfusion followed by chronic administration of tyrphostin AG490 during the process of ischemia/reperfusion. A phosphotyrosine assay was performed. Briefly, nuclear extracts from hearts subjected to ischemia/reperfusion in presence of absence of tyrphostin AG490 were immunoprecipitated with anti-phosphotyrosine antibodies (4G10). Fifty microliters of 50% protein A-agarose, prewashed in lysis buffer (Upstate Biotechnology) was then added and the mixture was incubated for 2 hr at 4° C. Each sample was washed with washing buffer containing 150 mM NaCl, 50 mM Tris-HCL (pH 7.4), 5 mM EDTA, 0.25% Triton X-100, 2 mM phenylmethylsulfonyl fluoride, aprotinin (0.2 unit/ml), 1 mM Na3VO4, and 1 mM NaF. Samples were eluted in 2× Laernmli's sample buffer. Proteins were separated on a 7.5% SDS/polyacrylamide gel and transferred to nitrocellulose membrane, Nitropure (Micron Separations, Westboro, Mass.). Blots were probed with polyclonal antibody against Jak2 and developed according to the chemiluminescence protocol. Administration of tyrphostin AG490 in perfusion medium was inhibitory at both 5 and 50 μmol/L for pliosphorylation of Jak2, which was activated readily in the ischemic heart in absence of the inhibitor (FIG. 6A).

The mark [3] stands for this setting: first 60 min of reperfusion, treated groups (5 and 50 μmol/L).

Structures are written as SMILES. “Also recorded” adds a separate entry of the source.

T1 sequence (Q62689 whole entry, the tested form may be a part): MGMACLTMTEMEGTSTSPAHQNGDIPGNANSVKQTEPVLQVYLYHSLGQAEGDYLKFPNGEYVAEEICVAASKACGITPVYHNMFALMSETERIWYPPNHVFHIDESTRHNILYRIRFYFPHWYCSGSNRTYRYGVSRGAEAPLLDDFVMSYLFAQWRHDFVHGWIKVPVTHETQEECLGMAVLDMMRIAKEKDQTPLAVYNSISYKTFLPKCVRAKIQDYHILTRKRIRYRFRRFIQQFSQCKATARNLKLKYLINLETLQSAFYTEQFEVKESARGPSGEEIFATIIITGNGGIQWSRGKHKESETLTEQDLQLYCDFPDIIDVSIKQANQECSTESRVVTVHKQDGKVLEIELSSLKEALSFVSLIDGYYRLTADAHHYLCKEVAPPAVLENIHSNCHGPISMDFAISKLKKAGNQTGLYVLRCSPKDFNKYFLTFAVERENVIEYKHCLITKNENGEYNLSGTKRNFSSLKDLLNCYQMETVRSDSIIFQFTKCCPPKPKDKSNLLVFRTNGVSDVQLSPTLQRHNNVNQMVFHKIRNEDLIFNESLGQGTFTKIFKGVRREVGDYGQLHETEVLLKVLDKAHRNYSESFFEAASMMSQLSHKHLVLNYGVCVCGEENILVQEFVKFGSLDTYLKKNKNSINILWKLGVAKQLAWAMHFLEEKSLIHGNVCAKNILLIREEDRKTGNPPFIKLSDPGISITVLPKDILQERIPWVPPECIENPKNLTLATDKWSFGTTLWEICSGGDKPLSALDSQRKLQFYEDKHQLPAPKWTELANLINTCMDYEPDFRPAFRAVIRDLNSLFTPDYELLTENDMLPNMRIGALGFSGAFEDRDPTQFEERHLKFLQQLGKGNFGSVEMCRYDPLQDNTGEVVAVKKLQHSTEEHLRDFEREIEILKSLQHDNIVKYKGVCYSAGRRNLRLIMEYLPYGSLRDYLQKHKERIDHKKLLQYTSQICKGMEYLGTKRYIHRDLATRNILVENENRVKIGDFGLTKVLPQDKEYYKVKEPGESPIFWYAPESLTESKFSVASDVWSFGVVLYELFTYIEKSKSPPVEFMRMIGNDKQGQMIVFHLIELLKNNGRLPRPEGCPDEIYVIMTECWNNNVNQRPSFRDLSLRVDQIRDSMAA

As for `N#C/C(=C\c1ccc(O)c(O)c1)C(=O)NCc1ccccc1` [tyrphostin AG490], the “cardioprotection (developed pressure and dP/dt)” value in the test on rat hearts [1] (5 μmol/L) and in the test with rat hearts [1] (50 μmol/L) was “able to provide cardioprotection to approximately the same degree” each time. In addition, the Developed pressure amounted to 86±2.5 mm Hg in the test with rat hearts [1] (5 μmol/L, 60 min of reperfusion (R-60)); 69±5 mm HG in the test on rat hearts [1] (5 μmol/L, 90 min of reperfusion (R-90)); 60.85±4 mm Hg in the test with rat hearts [1] (5 μmol/L, 120 min of reperfusion (R-120)); 86±4.8 mm Hg with rat hearts [1] (50 μmol/L, 60 min of reperfusion (R-60)); 72.7±5.7 mm HG with rat hearts [1] (50 μmol/L, 90 min of reperfusion (R-90)); 53.75±7 mm Hg in the test on rat hearts [1] (50 μmol/L, 120 min of reperfusion (R-120)). In addition, in the test on rat hearts [1] (setting [3]), the Developed pressure entry is given as “minimally lowered”. Besides, the dp/dt came out at 3818±49.46 in the test with rat hearts [1] (5 μmol/L, R-30); 3362±53.14 in the test with rat hearts [1] (5 μmol/L, R-60); 2840±88 with rat hearts [1] (5 μmol/L, R-90); 2552±58.9 in the test on rat hearts [1] (5 μmol/L, R-120); 4156±238 with rat hearts [1] (50 μmol/L, R-30); 3840±140 in the test with rat hearts [1] (50 μmol/L, R-60). Also, the dp/dt with rat hearts [1] (50 μmol/L, R-90) was 3194.7±228; with rat hearts [1] (50 μmol/L, R-120), 2626±269. Further, the “baseline value for dP/dt” value in the test with rat hearts [1] (50 μmol/L) is reported as “increased slightly”. The “dP/dt and developed pressure versus untreated group” value in the test with rat hearts [1] (all treated groups (5 and 50 μmol/L)) is on record as “significantly higher”. Further, the dP/dt value result in the test on rat hearts [1] (setting [3]) is on record as “not lowered”. The myocardial infarct size result in the test with rat hearts [2] is “reduced myocardial infarct size; also recorded: reduction of infarct size”. The “angiotensinogen mRNA level” value in the test on angiotensinogen mRNA is “inhibited the stimulation of the angiotensinogen mRNA level; also recorded: inhibition of angiotensinogen mRNA”. The “phosphorylation of Jak2” value at Jak2 (5 μmol/L in perfusion medium) and at Jak2 (50 μmol/L in perfusion medium) was “inhibitory” throughout.
